From patent publication US20050042283A1, “Histamine and CCK2/gastrin receptor blockade in the treatment of acid-peptic disease and cancer” (UNIVERSITY OF MASSACHUSETTS, priority 2003, published 2005)

Legend:
[1] = system: ECL cell; details: rats; Poynter et al.; cited from earlier work
[2] = system: H. felis-infected INS-GAS mice; experiment: Gastric mucosa histological evaluation and scoring; format: in vivo; details: omeprazole study, 3 months; scale 0 to 4; n = 4
Description: The insulin-gastrin (INS-GAS) transgenic mice (FVB/N background) have been described previously (Wang, T. C. et al., 2000; Wang T. C. et al., 1993) and were free of specific pathogens. Animals were housed in microisolator, solid-bottomed polycarbonate cages, fed a commercially prepared pelleted diet, and given water ad libitum. One hundred twenty four (124) male INS-GAS mice at 2 or 3 months of age were inoculated with Helicobacter felis (ATCC 49179) as previously described (Wang, T. C. et al., 2000). Infection status was confirmed at 14 weeks and 26 weeks post inoculation by enzyme-linked immunosorbent assay (ELISA) to measure immunoglobulin IgG antibody to H. felis, and by quantitative real-time PCR assays of gastric corpus tissue at necropsy as described below. All experiments were approved by the Institutional Animal Care and Use Committee of University of Massachusetts Medical School.
Mice in group III were treated orally with the histamine H2 receptor antagonist loxtidine (in drinking water) at a dose of 0.5 g/L, while group IV mice received both drugs. For the 3 months drug study of inhibitory effects on maximal acid secretion, gastric atrophy, hyperplasia and dysplasia, 8 mice were prepared for each group. For the 6 months drug study of inhibitory effects on gastric carcinogenesis, 17 mice were prepared for each group.
The proton pump inhibitor omeprazole was purchased from Sigma (St. Louis Mo.) and dissolved in dimethylsulfoxide (DMSO)/PEG300, a 1:1 mixture at the concentration of 40 mg/ml, and injected intraperitoneally daily at the dose of […] (=350 micromole/kg) for 3 months. Twenty four (24) mice were divided into four groups. Mice in group A were controls treated with vehicle only, whereas group B mice were treated with omeprazole alone. Group C and D mice were treated with combination of omeprazole and YF476 or loxtidine, respectively.
At necropsy, linear strips extending from the squamocolumnar junction through the proximal duodenum were fixed in 10% neutral-buffered formalin, paraffin-embedded, cut at 5 microns, and stained with hematoxylin and eosin. Indices of injury in the gastric cardia/corpus and antrum were scored on an ordinal scale from 0 to 4 in increments of 0.5 by a single veterinary pathologist (A.B.R.) blinded to treatment groups. Paraffin-embedded sections were also stained with the Warthin-Starry silver staining method for detection of H.felis as previously described (Fox, J. G. et al., 2003).

[3] = molecular target: T1, CCK-B (Rattus norvegicus, UniProt P30553); details: reportedly; Lindstrom et al 1999; cited from earlier work
T1 sequence (P30553 1-452): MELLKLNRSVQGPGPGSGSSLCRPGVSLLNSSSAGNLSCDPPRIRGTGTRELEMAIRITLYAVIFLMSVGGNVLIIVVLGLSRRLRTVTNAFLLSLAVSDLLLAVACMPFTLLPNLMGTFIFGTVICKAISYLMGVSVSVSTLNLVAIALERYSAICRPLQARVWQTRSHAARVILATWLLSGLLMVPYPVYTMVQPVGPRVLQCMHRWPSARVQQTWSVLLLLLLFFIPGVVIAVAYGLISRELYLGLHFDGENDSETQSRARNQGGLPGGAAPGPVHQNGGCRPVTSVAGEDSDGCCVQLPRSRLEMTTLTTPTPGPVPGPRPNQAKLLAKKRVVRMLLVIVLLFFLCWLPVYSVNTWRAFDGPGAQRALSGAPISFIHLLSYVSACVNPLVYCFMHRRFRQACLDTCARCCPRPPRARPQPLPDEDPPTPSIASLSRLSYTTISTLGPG

## COc1ccc2[nH]c([S+]([O-])Cc3ncc(C)c(OC)c3C)nc2c1 (stereo not drawn) [Omeprazole alone]
[1]
  Duration of administration after which ECL cell hyperplasia was seen: 28 days
[2]
  Corpus histological score: Atrophy: 3.13 ± 0.25
  Corpus histological score: Dysplasia: 1.38 ± 0.48
  Corpus histological score: Hyperplasia: 2.75 ± 0.50
  Corpus histological score: Inflammation: 1.88 ± 0.63a

## Cc1cccc(NC(=O)N[C@@H]2N=C(c3ccccc3)c3ccccc3N(CC(=O)c3ccccc3C)C2=O)c1 [YM022]
[3]
  Potency relative to YF476: about 5 times
